In patent publication US20240261474A1, “BIODEGRADABLE TISSUE SCAFFOLD WITH SECONDARY MATRIX TO HOST WEAKLY ADHERENT CELLS” (THE U.S.A., as represented by the Secretary, Department of …, priority 2021, published 2024) one finds acid phosphatase activity and outer segment ingestion data, which are given here for two molecules.

For experiment [1], the system named is acid phosphatase. The experiment is described as follows: Acid phosphatase activity in lysates of treated RPE cells (p-nitrophenyl phosphate). As to conditions: compared with DMSO- or endo-IWR-1-treated cells. In kind it is cell-based, human. How it is done: Acid phosphatase has higher expression in the macula (Boulton et al., Br. J. Opthalm. 78:125-9, doi: 10.1136/bjo.78.2.125, 1994). This enzyme has an important role in photoreceptor outer segment digestion. The acid phosphatase activity was determined in cells treated with DMSO, AGN 193109 or endo-IWR-1. RPE cells were lysed in distilled water to extract the enzyme. The lysates were then incubated with p-nitrophenyl phosphate, a phosphatase substrate that turn yellow when dephosphorylated by acid phosphatase. The color of the solution was measured with a spectrophotometer to estimate the enzyme activity.

Experiment [2] deals with iPSC-RPE cells. Put plainly: Phagocytosis test with labelled bovine outer segments, flow cytometry. In kind it is cell-based, human. Particulars: 4 hours incubation with outer segments; One-way ANOVA showed no difference. As to the method:
iPSC-RPE cells were provided purified bovine outer segment (mostly rod photoreceptors) to phagocytose. The outer segments were labelled with a dye that fluoresce when the outer segments are phagocytosed. RPE cells were incubated for 4 hours with outer segments and then analyzed with flow cytometry to measure outer segment ingestion or put back in the incubator for 20 hours before performing flow cytometry to measure outer segment digestion.

“Also recorded” adds a separate entry of the source.

Turning to `Cc1ccc(C2=CCC(C)(C)c3ccc(C#Cc4ccc(C(=O)O)cc4)cc32)cc1` [AGN 193109, 4-[2-[5,6-Dihydro-5,5-dimethyl-8-(4-methylphenyl)-2-naphthalenyl]ethynyl]-benzoic acid], the acid phosphatase activity result in experiment [1] is listed as “higher acid phosphatase activity than DMSO- or endo-IWR-1-treated cells; also recorded: higher acid phosphatase activity”.
As to `O=C(Nc1cccc2cccnc12)c1ccc(N2C(=O)C3C4C=CC(C4)C3C2=O)cc1` (stereo not drawn) [ENDO-1-IWR, 4-(1,3,3a,4,7,7a-Hexahydro-1,3-dioxo-4,7-methano-2H-isoindol-2-yl)-N-8-quinolinyl-Benzamide], the outer segment ingestion result in experiment [2] is on record as “ingest (peripheral cells) more outer segments”.
